Results published in patent US6867305B2, “Synthesis of epothilones, intermediates thereto and analogues thereof” (Sloan-Kettering Institute for Cancer Research, priority 1996, dated 2005).
“And” between values parts separate entries of the source, which are not always exact repeats. Identical values can stand only once. Like-named read-outs stand apart in the source and are kept apart here. Starred links: 1 amine or outer side, 2 acyl side, 3 side chain; linkers in the order of their positions; H or OH if unused. Positions of bridges follow the written chain, without caps; N, C: chain ends. Non-standard residues stand in square brackets, D forms with d. Residues, ends and D or L forms follow the SMILES beside them. Chains are numbered I, II in the order given. Actinocin(9to1) = Cc1c2oc3c(C)ccc(C(=O)[*:1])c3nc-2c(C(=O)[*:2])c(N)c1=O; NMeV = CN[C@H](C(=O)O)C(C)C; Sar = CNCC(=O)O

Key:
[1] = system: CCRF-CEM/VBL100 (vinblastine-resistant subline); assay: Tumor cell growth inhibition in vitro (XTT, 72 h); format: cell-based, human; conditions: for cross-resistance (fold of resistance vs parent cell line): CCRF-CEM/VBL100 vs CCRF-CEM
Description: (§1) The fresh medium containing each drug was replenished every 7-14 days. […] In each case ,the drug-exposed cells were resuspended in fresh media for a minimum of 4 days before the experiments for the cell-growth inhibition was carried out.
(§2) The cells were cultured at an initial density of 2-5×10^4 cells per ml. They were maintained in a 5% CO2-humidified atmosphere at 37° C. in RPMI mediun 1640 (GIBCO/BRL) containing penicillin (100 units/ml), streptomycin (100 μg/ml) (GIBCO/BRL), and 5% heat-inactivated fetal bovine serum. For solid tumor cells growing in a monolayer (such as MCF-7/Adr), cytotoxicitiy of the drug was determined in 96-well microtiter plates by using the sulforhodamine B method as described by Skehan et al (23) for measuring the cellular protein content. For cells that were grown in suspension (such as CCRF-CEM and its sublines), cytotoxicitiy was measured by using the 2,-3-bis(2-methoxy-4-nitro-5-sulfophenyl)-5carboxanilide)-2H terazodium hydroxide (XTT)-microculture tetrazonium method (24) in duplicate in 96-well microtiter plates. For both methods, the absorbance of each well was measured with a microplate reader (EL-340, Bio-Tek, Burlington, Vt.). Each run entailed six or seven concentrations of the tested drugs. Dose-effect relationship data were analyzed with the median-effect plot (25) by using a previously described computer program (26).

[2] = system: CCRF-CEM human T-cell acute lymphoblastic leukemia cells; assay: Tumor cell growth inhibition in vitro (XTT, 72 h); format: cell-based; conditions: for IC50: 72 h incubation
Description: as §1, §2

CCRF-CEM/VBL = assay: Relative potency in vitro, very highly resistant MDR cells; format: cell-based, human
Description: as §2

[3] = system: DC-3F hamster lung fibroblasts; assay: Tumor cell growth inhibition in vitro; format: cell-based; conditions: read-out: IC50
Description: as §1, §2

[4] = system: PC-3 prostate adenocarcinoma xenograft; assay: Human tumor xenograft in nude mice; format: in vivo
Description: (§3) Depending on the tumor type, treatment started on day 10 to day 21 when subcutaneous tumor size reached 35-200 mm^3, except otherwise indicated. Tumor size and body-weight were recorded every other day (Q2D) and, for humane reasons, the animals were sacrificed when tumor size reached ≧10% of body-weight. Each group, including untreated control, consisted of 3-5 animals unless otherwise indicated.
(§4) Athymic nude mice bearing the nu/nu gene were used for all human tumor xenografts. Outbred, Swiss-background mice were obtained from Charles River Laboratories. Male mice 8 weeks or older weighing 22 g and up were used for most experiments. The drug was administered via the tail vein for 6 hr.-i.v. infusion. Each individual mouse was confined in a perforated Falcon polypropylene tube restrainer for drug administration. Tumor volume was assessed by measuring length×width×height (or width) using a caliper. The programmable Harvard PHD2000 syringe pump (Harvard Apparatus) with multi-track was used for i.v. infusion. […] All animal studies were conducted in accordance with the guidelines of the National Institutes of Health “Guide for the Care and Use of Animals” and the protocol approved by the Memorial Sloan-Kettering Cancer Center's Institutional Animal Care and Use Committee. In keeping with the policy of this committee for the humane treatment of tumor-bearing animals, mice were euthanized when tumors reached ≧10% of their total body weight.
(§5) Human tumor cells (5×10^6) or tumor tissue (30-50 mg) were implanted s.c. flank in nu/nu mice (Charles River Laboratories, Wilmington, Mass.). When tumor grew to a specified size, treatment was started by every-other day×5 with 6 hr i.v.-infusion, unless otherwise indicated. Tumor volume was measured with calipers in three dimensions (length×width×height or width). Body-weight changes and lethality were monitored every other day.

[5] = system: K562 chronic myelocytic leukemia xenograft; assay: Human tumor xenograft in nude mice; format: in vivo
Description: FIG. 34 depicts tumor size in nude mice bearing human leukemia […] tumor following 6 mg/kg C-15-Aza-EpoB, Q2D×6 and 30 mg/kg dEpoF, Q2ED×6 (i.v. infusion […].). K562 tumor cells (1×10^7 in 0.2 mL) were inoculated to nude mice on day 0. Mice were treated with 6 mg/kg aza-EpoB, 6 h-i.v. infusion on days 20, 22, 24, 26, 28 and 30 (Δ, n=3). The same group of mice were then treated with 30 mg/kg dEpoF, 6 h-i.v. infusion on days 42, 44, 46, 48, 52, and 54 (Δ, n=3). […] The control mice (∘, n=3) received vehicle only.
K562 tumor cells (1×10^7, in 0.2 ml/mouse) were implanted s.c. on day 0. […] The control mice (∘, n=4) received vehicle, Cremophor-ethanol (1:1), only. The vertical bars indicate mean tumor size in mm^3±S.E.
as §3, §4, §5

[6] = system: MCF-7 human mammary adenocarcinoma; assay: Tumor cell growth inhibition in vitro; format: cell-based; conditions: read-out: IC50
Description: as §2, with “They were maintained in a 5% CO2-humidified atmosphere at 37° C. in RPMI mediun 1640 (GIBCO/BRL) containing penicillin (100 units/ml), streptomycin (100 μg/ml) (GIBCO/BRL), and 5% heat-inactivated fetal bovine serum.” left out

[7] = system: MCF-7/Adr mammary xenograft; assay: Human tumor xenograft in nude mice; format: in vivo
MCF-7/Adr = assay: Tumor cell growth inhibition in vitro; format: cell-based, human; conditions: MCF-7/Adr
Description: as §2, with “They were maintained in a 5% CO2-humidified atmosphere at 37° C. in RPMI mediun 1640 (GIBCO/BRL) containing penicillin (100 units/ml), streptomycin (100 μg/ml) (GIBCO/BRL), and 5% heat-inactivated fetal bovine serum.” left out

[8] = system: HCT-116 colon carcinoma xenograft; assay: Human tumor xenograft in nude mice; format: in vivo; conditions: HCT-116, i.v. infusion
Text: Therapeutic efficacy of cancer chemotherapeutic agents varies with various factors including the tumor models used and the dosage of drug and schedules and routes of administration. […] In the present studies, we intended to compare the therapeutic effects of drugs near their maximal tolerated doses by measuring the extent of body-weight decreases and/or lethality.
as §3, §4, §5

[9] = system: MX-1 mammary carcinoma xenograft; conditions: MX-1, i.p., ref 19 (Table 4)
[10] = system: CCRF-CEM/VM1 (teniposide-resistant subline); assay: Tumor cell growth inhibition in vitro (XTT, 72 h); format: cell-based, human; conditions: Homo sapiens, CCRF-CEM, 72 h
Description: as §1, §2

[11] = system: A549 lung carcinoma xenograft; assay: Human tumor xenograft in nude mice; format: in vivo; conditions: A549, i.v. infusion
Description: as §3, §4, §5

CCRF-CEM/VM2 = assay: Cell growth inhibition, resistant subline; format: cell-based, human
Description: as §1, §2

[12] = system: CCRF-CEM/Taxol (paclitaxel-resistant subline); assay: Tumor cell growth inhibition in vitro (XTT, 72 h); format: cell-based, human
Description: as §1, §2

[13] = system: K562 human chronic myeloblastic leukemia; assay: Tumor cell growth inhibition in vitro; format: cell-based; conditions: Homo sapiens, K562, K562
Description: as §2, with “They were maintained in a 5% CO2-humidified atmosphere at 37° C. in RPMI mediun 1640 (GIBCO/BRL) containing penicillin (100 units/ml), streptomycin (100 μg/ml) (GIBCO/BRL), and 5% heat-inactivated fetal bovine serum.” left out

tubulin = assay: Tubulin-binding / tubulin polymerization assay; format: biochemical

`CC1=CCC(C(C)=Cc2csc(C)n2)NC(=O)CC(O)C(C)(C)C(=O)C(C)C(O)C(C)CCC1` [15-epi-aza-dEpoB, 12,13,15-desoxy-15(R)-aza-epothilone B] was tested, and the IC50 ([1]; CCRF-CEM/VBL100, 72 h, read-out: IC50) was 551 nM, the “cross-resistance (fold of resistance vs parent cell line)” value [1] was 4.6 x and the IC50 ([2]; CCRF-CEM, read-out: IC50) was 119 nM.

In the case of `C/C1=C/C[C@@H](/C(C)=C/c2csc(C=O)n2)OC(=O)C[C@H](O)C(C)(C)C(=O)[C@H](C)[C@@H](O)[C@@H](C)CCC1` [21-oxo-dEpoB, 21-oxo-desoxyepothilone B], the “potency relative to dEpoB (times less potent)” value ([2]; CCRF-CEM) is reported as “about 3.7 ×”, the IC50 ([2]; CCRF-CEM, read-out: IC50) is reported as 27 nM and the “potency relative to dEpoB (times less potent)” value (CCRF-CEM/VBL; MDR CCRF-CEM/VBL cells) is reported as 5.1 ×. For the same compound, the “Fold of Resistance (B)/(A)” value (CCRF-CEM/VBL; [IC50 CCRF-CEM/VBL]/[IC50 CCRF-CEM]) was 11.9 x and the IC50 (CCRF-CEM/VBL; very highly resistant MDR CCRF-CEM/VBL cells, read-out: CCRF-CEM/VBL IC50) was 326 nM.

For `Cc1c2oc3c(C)ccc(C(=O)N[C@@H]4C(=O)N[C@H](C(C)C)C(=O)N5CCC[C@H]5C(=O)N(C)CC(=O)N(C)[C@@H](C(C)C)C(=O)O[C@@H]4C)c3nc-2c(C(=O)N[C@@H]2C(=O)N[C@H](C(C)C)C(=O)N3CCC[C@H]3C(=O)N(C)CC(=O)N(C)[C@@H](C(C)C)C(=O)O[C@@H]2C)c(N)c1=O` [Actinomycin D, actinomycin D, reference compound] (I: T[dV]P[Sar][NMeV] / II: T[dV]P[Sar][NMeV]; ester I:1-I:C, II:1-II:C; linker I:N-II:N via Actinocin(9to1)), the IC50 [3] was 0.25 nM and 0.31 nM.

With `COc1cccc2c1C(=O)c1c(O)c3c(c(O)c1C2=O)C[C@@](O)(C(=O)CO)C[C@@H]3O[C@H]1C[C@H](N)[C@H](O)[C@H](C)O1` [Adriamycin, doxorubicin, reference compound] the “Therapeutic Effect Rank Order” value ([4]; PC-3, i.v. or i/p.) was “Taxol>dEpoB>>Adriamycin”, the “Therapeutic Effect Rank Order” value ([5]; K562, i.v. infusion, FIG. 3 & 4) was “dEpoB>>>VBL> Taxol> Adriamycin” and the therapeutic effect ([5]; K562, dEpoB 30 mg/kg, Taxol 20 mg/kg 6 hr i.v. infusion, Adriamycin 3 mg/kg, vinblastine 2.5 mg/kg i.v., every other day from day 20 (FIG. 36)) was “only partial curative or remissive effects”. For the same compound, the IC50 ([6]; Homo sapiens, MCF7, MCF-7) was 81 nM, the IC50 ([6]; MCF-7) was 90 nM and the “Therapeutic Effect Rank Order” value ([7]; i.p., ref 19 (Table 5)) was “dEpoB>Camptothecin>Adriamycin>Taxol”. For the same compound, the “Therapeutic Effect Rank Order” value ([7]; i.v. infusion) was “dEpoB>>VP-16, Taxol>VBL, Adriamycin”, the IC50 (MCF-7/Adr; Homo sapiens, NCI/ADR-RES) was 280 nM and the IC50 (MCF-7/Adr) was 316 nM.

For `CCc1c2c(nc3ccc(OC(=O)N4CCC(N5CCCCC5)CC4)cc13)-c1cc3c(c(=O)n1C2)COC(=O)[C@]3(O)CC` [CPT-11, Irinotecan, reference compound], the “Therapeutic Effect Rank Order” value [8] was “Taxol, CPT-11≈dEpoB, dEpoF”.

In the case of `CC[C@@]1(O)C(=O)OCc2c1cc1n(c2=O)Cc2cc3ccccc3nc2-1` [Camptothecin, camptothecin, reference compound], the “Therapeutic Effect Rank Order” value ([7]; i.p., ref 19 (Table 5)) is reported as “dEpoB>Camptothecin>Adriamycin>Taxol” and the “Therapeutic Effect Rank Order” value [9] is reported as “dEpoB>Camptothecin>Taxol>VBL, EpoB”.

`COc1cc([C@@H]2c3cc4c(cc3[C@@H](O[C@@H]3O[C@@H]5CO[C@@H](C)O[C@H]5[C@H](O)[C@H]3O)[C@H]3COC(=O)[C@H]23)OCO4)cc(OC)c1O` [Etoposide, etoposide, reference compound] was tested, and the IC50 [10] was 3440 nM, the “Therapeutic Effect Rank Order” value [11] was “Taxol, dEpoB, VBL>VP-16” and the “Therapeutic Effect Rank Order” value ([4]; PC-3, i.v. infusion) was “Taxol, VBL>dEpoB>>VP-16”. For the same compound, the IC50 ([2]; CCRF-CEM) was 29 nM, the “Therapeutic Effect Rank Order” value ([7]; i.v. infusion) was “dEpoB>>VP-16, Taxol>VBL, Adriamycin” and the “fold resistance vs original CCRF-CEM” value (CCRF-CEM/VM2; CCRF-CEM/VM2) was 69 fold. The IC50 (CCRF-CEM/VM2; Homo sapiens, CCRF-CEM/VM2, exposed to teniposide 12 months) was 19800 nM.

With `C/C1=C/CC(/C(C)=C/c2csc(C)n2)NC(=O)CC(O)C(C)(C)C(=O)[C@H](C)[C@@H](O)[C@@H](C)CCC1` (stereo partly drawn) [aza-dEpoB, 12,13,15-desoxy-15(S)-aza-epothilone B] the “cross-resistance (fold of resistance vs parent cell line)” value [1] was 35.8 x, the IC50 ([1]; Homo sapiens, CCRF-CEM, 72 h) was 997 nM and the “cross-resistance (fold of resistance vs parent cell line)” value ([12]; CCRF-CEM/Taxol vs CCRF-CEM) was 38.4 x. For the same compound, the IC50 ([12]; Homo sapiens, CCRF-CEM, 72 h) was 791 nM, the IC50 [13] was 2.4 nM and the IC50 ([2]; Homo sapiens, CCRF-CEM, 72 h) was 27.8 nM. For the same compound, the “potency relative to aza-EpoB (fold less potent)” value ([2]; in vitro cell lines) was “about 10 fold”.

In the case of `C/C1=C/CC(/C(C)=C/c2csc(COC(=O)c3c(F)c(F)c(N=[N+]=[N-])c(F)c3F)n2)OC(=O)CC(O)C(C)(C)C(=O)C(C)C(O)[C@@H](C)CCC1` (stereo partly drawn) [compound 66], the “induction of tubulin polymerization” value (tubulin) is reported as “did not induce tubulin polymerization”.
